Assay results reported in US10894042B2, “Methods and pharmaceutical compositions for the treatment of cancer” (INSERM (INSTITUT NATIONAL DE LA SANTÉ ET DE LA RECHERCHE …, priority 2014, dated 2021).
Where no end group is shown, it is not given here.

Assays:
[1] = test system: human colon cancer cells (LoVo cells); test: Growth of tumors from human colon cancer cell xenografts in nude mice; format: in vivo; conditions: for tumor growth versus PBS control mice: LoVo xenograft in nude mice, 100 μg intraperitoneally 2 times/week, 48 days of treatment
Procedure: FIG. 4: Effect of ip inoculation of OxA (▴), Suvorexant (◯) and Almorexant (Δ) on the growth of tumors developed by xenografting human colon cancer cells in nude mice. A. LoVo cells were inoculated in the flank of nude mice at day 0. Mice were injected 2 times/week intraperitoneally with 100 μg of OxA, Suvorexant or Almorexant in 100 μl solutions or with 100 μl of PBS (●) for controls. After 48 days of treatment, mice were sacrificed and tumor volume and weight were then recorded. The development of tumors was followed by caliper measurement. B. treatment (2 injections/week) with various doses of Almorexant (1 mg/kg (□), 2.5 mg/kg (Δ) or 5 mg/kg (◯)) compared to OxA treatment (5 mg/kg, ▴). Control was performed by injection of 100 μl PBS (●).
The inventors investigated the effect of intraperitoneal inoculation of OxA, Suvorexant and Almorexant on the growth of tumors developed by xenografting human colon cancer cells (LoVo cells) in nude mice.

[2] = test system: HEK-OX1R cells; test: Cell growth determination, HEK-OX1R cells; format: cell-based; conditions: 48 hr incubation, viable cells counted, OxA 0.1 μM, SB408124 increasing concentrations
Procedure: (§1) FIG. 2: Determination of the inhibition of cellular growth of HEK-OX1R cells and colon adenocarcinoma cells (HT-29) induced by […] of OxA or various concentrations of SB408124 antagonist. HEK-OX1R cells (black column) and HT-29 cells (white column) were incubated with 0.1 μM of OxA and indicated increasing concentration of SB408124, and cells were counted after 48 hr incubation. Results are expressed as the percentage of total viable cells.
(§2) HEK-OX1R cells or colon adenocarcinoma HT-29 cells were seeded, grown and maintained at 37° C. in a humidified 5% CO2/air incubator. After 24 hr culture, cells were treated with or without Orexin-A peptide or SB408124 antagonist, previously dissolved in DMSO, to be tested at the concentration indicated in the figure legends. After 48 hr of treatment, adherent cells were harvested by TriplE (Life Technologies, Saint Aubin, France) and manually counted. Apoptosis was determined using the Guava PCA system and the Guava nexin kit.

[3] = biological target: T1, OX1R (Homo sapiens, UniProt O43613); test: Ca2+ mobilization assay in HEK-OX1R cells (FluoForte); format: cell-based
T1 construct: HEK cells expressing recombinant native OX1R (HEK-OX1R) cells were seeded in 96-wells plate; expressed in transfected cells; host or cells: HEK cells (HEK-OX1R)
T1 sequence (O43613 1-425): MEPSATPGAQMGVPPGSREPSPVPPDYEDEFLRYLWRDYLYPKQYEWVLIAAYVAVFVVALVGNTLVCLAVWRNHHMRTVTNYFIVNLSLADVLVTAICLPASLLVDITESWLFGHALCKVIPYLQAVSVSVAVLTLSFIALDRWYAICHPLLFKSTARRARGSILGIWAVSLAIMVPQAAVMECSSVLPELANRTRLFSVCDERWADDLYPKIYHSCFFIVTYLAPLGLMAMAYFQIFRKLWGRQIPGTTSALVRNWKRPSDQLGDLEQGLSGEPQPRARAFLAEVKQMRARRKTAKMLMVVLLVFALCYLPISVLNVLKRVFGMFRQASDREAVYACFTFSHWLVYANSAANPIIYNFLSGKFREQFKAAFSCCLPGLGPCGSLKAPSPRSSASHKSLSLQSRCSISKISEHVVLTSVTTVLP
Procedure: FIG. 1: Effect of orexin-A and SB408124 antagonist on Ca2+ mobilization in HEK-OX1R cells. Top, HEK-OX1R cells were incubated with fluorescence probe (FluoForte) for 45 min. at 37° C. according to FluoForte calcium assay kit (Enzo Life Sciences). 1 μM of OxA was added to cells and fluorescence emission was measured on TECAN Infinite 200 fluorospectrophotometer. Bottom, HEK-OX1R cells were incubated with fluorescence probe (FluoForte) for 45 min. at 37° C. and then incubated with 1 μM of SB408124 for 1 h at 37° C. After pre-incubation, 1 μM of OxA was added to cells and fluorescence emission was measured.
HEK cells expressing recombinant native OX1R (HEK-OX1R) cells were seeded in 96-wells plate, grown and maintained at 37° C. in a humidified 5% CO2/air incubator. 80,000 cells/well were incubated with FluoForte probe according to FluoForte calcium assay kit (ENZO life Sciences, Farmingdale, N.Y., USA) for 45 min. at 37° C. and then incubated with or without 1 μM of SB408124 antagonist for 1 h at 37° C. After pre-incubation, 1 μM of OxA was added and fluorescence was determined using TECAN Infinite 200 fluorospectrophotometer.

[4] = test system: OX1R expressing colon adenocarcinoma cells, HT-29; test: Apoptosis assay (annexin V-PE binding, Guava nexin kit), HT-29 cells; format: cell-based; conditions: for apoptosis (annexin V-PE binding): HT-29 cells, 48 h, 1 μM orexin-A or various concentrations of SB408124
Procedure: FIG. 3: Effect of orexin-A and SB408124 antagonist on apoptosis in OX1R expressing colon adenocarcinoma cells, HT-29. HT-29 cells were challenged with 1 μM orexin-A or various concentration of SB408124 for 48 h. Apoptosis was measured by determination of annexin V-PE binding, and results are expressed as the percentage of apoptotic cells. Results are means±SE of three experiments. ***P<0.001.
as §2

[5] = test system: colon adenocarcinoma HT-29 cells; test: Cell growth determination, HT-29 cells; format: cell-based; conditions: 48 hr incubation, viable cells counted, OxA 0.1 μM, SB408124 increasing concentrations
Procedure: as §1, §2

Compound	tumor growth versus PBS control mice [1]	tumor growth inhibition, dose dependence ([1]; LoVo xenograft in nude mice, 1, 2.5 or 5 mg/kg, 2 injections/week)	inhibition of cellular growth [2]	agonist/antagonist character for OX1R-mediated calcium mobilization [3]	effect on OxA-induced Ca2+ mobilization ([3]; preincubation with 1 μM SB408124 for 1 h at 37° C., then 1 μM OxA)	apoptosis (annexin V-PE binding) [4]	agonist/antagonist character for OX1R-mediated mitochondrial apoptosis ([4]; colon cancer cell line)	inhibition of cellular growth [5]	Ca2+ mobilization ([3]; 1 μM OxA, fluorescence (FluoForte))
CNC(=O)[C@@H](c1ccccc1)N1CCc2cc(OC)c(OC)cc2[C@@H]1CCc1ccc(C(F)(F)F)cc1 [Almorexant]	significantly smaller tumors	induce in a dose-dependent manner tumor growth inhibition	–	–	–	–	–	–	–
Cc1cc(NC(=O)Nc2ccc(N(C)C)cc2)c2cc(F)cc(F)c2n1 [SB408124]	–	–	strong inhibition in a dose-dependent manner	full antagonist	totally abolished	induce in a dose-dependent manner cell apoptosis	full agonist	strong inhibition in a dose-dependent manner	–
Cc1ccc(-n2nccn2)c(C(=O)N2CCN(c3nc4cc(Cl)ccc4o3)CC[C@H]2C)c1 [Suvorexant]	significantly smaller tumors	–	–	–	–	–	–	–	–
OxA: orexin A, a 33 amino acid neuropeptide, the natural OX1R agonist (QPLPDCCRQKTCSCRLYELLHGAGNHAAGILTL; ends and bridges not checked; cysteine pairing not given here; UniProt O43612 34-66, looked up)	significantly smaller tumors	–	strong inhibition	–	–	induced an apoptotic effect	–	strong inhibition	large and transient
